Measured values: patent US20100184596A1, “METHOD FOR THE CONTROL OF WEEDS IN TURF” (SYNGENTA CROP PROTECTION, INC., priority 2007, published 2010)

Experiments:
Type in all cases: in vivo
[1] = system: St. Augustinegrass v. Delmar; experiment: Phytotoxicity via granule application (Table B3.1)
turfgrass weeds = experiment: Example B5, conclusion in words; settings: post emergence spray
Protocol: (§1) The weed control efficacy of the compound of formula I was tested. The compound was applied via post emergence spray to a range of weeds, at various rates and spray treatment treatment regimes. Percentage weed control assessments were taken at various timepoints.

Paspalum sp. = experiment: Weed control via post emergence spray, in common centipedegrass (Table B5.1)
Protocol: as §1

turfgrass = experiment: Example B2, conclusion in words; settings: spray
Protocol: (§2) The phytotoxicity of the compound of formula I to turfgrass species was tested. The compound was applied via post emergence spray to a range of warm and cool season turfgrass species at various rates and spray treatment treatment regimes. Percentage phytotoxicity assessments were taken at various timepoints.

[2] = system: Perennial ryegrass v. blend of Bright Star, Citation Fore and Quick Trans; experiment: Phytotoxicity of granule formulations with safeners (Table B4.5); settings: 8 DAT
Protocol: The phytotoxicity to turfgrass of the compound of formula I in combination with various safeners was tested. The combinations were applied by post emergence spray application. Percentage phytotoxicity assessments were taken at various timepoints. The safeners tested in these trials were cloquintocet-mexyl, cyprosulfamide, a compound of formula 2.3, and isoxadifen-ethyl.
Tables B4.4 and B4.5 present the results of trials using safeners applied in combination with granule formulations of the compound of formula I.

[3] = system: Bermudagrass v. Tifway 419; experiment: Phytotoxicity via post emergence spray application (Table B2.3)
Protocol: as §2

Bluegrass/fescue mix = experiment: Phytotoxicity via post emergence spray application (Table B2.7); settings: 1 appl
Protocol: as §2

[4] = system: St. Augustinegrass v. Delmar; experiment: Phytotoxicity via post emergence spray application (Table B2.8); settings: 1 appl
Protocol: as §2

COCCOCc1nc(C(F)(F)F)ccc1C(=O)C1=C(O)C2CCC(C2)C1=O (stereo not shown) [Formula I, 4-Hydroxy-3-[2-(2-methoxyethoxymethyl)-6-trifluoromethylpyridine-3-carbonyl]-bicyclo[3.2.1]oct-3-en-2-one]
% phytotoxicity ([1]; Granule A (inert), 112 g ai/ha, 11 DAT): 1.30%
% phytotoxicity ([1]; Granule A (inert), 112 g ai/ha, 15 DAT): 0.70%
% phytotoxicity ([1]; Granule A (inert), 112 g ai/ha, 28 DAT): 0.00%
% phytotoxicity ([1]; Granule A (inert), 280 g ai/ha, 20 DAT): 0.00%
% phytotoxicity ([1]; Granule A (inert), 280 g ai/ha, 28 DAT): 0.00%
% phytotoxicity ([1]; Granule B (fertiliser), 112 g ai/ha, 20 DAT): 1.30%
% phytotoxicity ([1]; Granule B (fertiliser), 112 g ai/ha, 28 DAT): 0.00%
% phytotoxicity ([1]; Granule B (fertiliser), 280 g ai/ha, 7 DAT): 36.70%
% phytotoxicity ([1]; Granule B (fertiliser), 280 g ai/ha, 15 DAT): 11.70%
% phytotoxicity ([1]; Granule B (fertiliser), 280 g ai/ha, 20 DAT): 5.00%
% phytotoxicity ([1]; Granule B (fertiliser), 280 g ai/ha, 28 DAT): 1.70%
% phytotoxicity ([1]; Spray, 112 g ai/ha, 7 DAT): 36.70%
% phytotoxicity ([1]; Spray, 112 g ai/ha, 11 DAT): 20.00%
% phytotoxicity ([1]; Spray, 112 g ai/ha, 15 DAT): 9.30%
% phytotoxicity ([1]; Spray, 112 g ai/ha, 20 DAT): 4.00%
% phytotoxicity ([1]; Spray, 112 g ai/ha, 28 DAT): 0.00%
% phytotoxicity ([1]; Spray, 280 g ai/ha, 7 DAT): 60.00%
% phytotoxicity ([1]; Spray, 280 g ai/ha, 11 DAT): 43.30%
% phytotoxicity ([1]; Spray, 280 g ai/ha, 15 DAT): 20.00%
% phytotoxicity ([1]; Spray, 280 g ai/ha, 20 DAT): 10.00%
% phytotoxicity ([1]; Spray, 280 g ai/ha, 28 DAT): 3.30%
weed control, in words (turfgrass weeds): effective at controlling a variety of turfgrass weeds, even when applied at low rates
% control (Paspalum sp.; 1 appl, 140 g ai/ha, 5 DAT): 16.67%
% control (Paspalum sp.; 1 appl, 140 g ai/ha, 13 DAT): 60.00%
% control (Paspalum sp.; 1 appl, 140 g ai/ha, 21 DAT): 55.00%
% control (Paspalum sp.; 1 appl, 140 g ai/ha, 27 DAT): 46.67%
% control (Paspalum sp.; 1 appl, 140 g ai/ha, 35 DAT): 21.67%
% control (Paspalum sp.; 1 appl, 140 g ai/ha, 42 DAT): 6.67%
% control (Paspalum sp.; 1 appl, 140 g ai/ha, 61 DAT): 13.33%
% control (Paspalum sp.; 1 appl, 280 g ai/ha, 5 DAT): 21.67%
% control (Paspalum sp.; 1 appl, 280 g ai/ha, 13 DAT): 71.67%
% control (Paspalum sp.; 1 appl, 280 g ai/ha, 21 DAT): 70.00%
% control (Paspalum sp.; 1 appl, 280 g ai/ha, 27 DAT): 60.00%
% control (Paspalum sp.; 1 appl, 280 g ai/ha, 35 DAT): 43.33%
% control (Paspalum sp.; 1 appl, 280 g ai/ha, 42 DAT): 20.00%
% control (Paspalum sp.; 1 appl, 280 g ai/ha, 61 DAT): 18.33%
% control (Paspalum sp.; 2 appl, 140 g ai/ha, 5 DAT): 20.00%
% control (Paspalum sp.; 2 appl, 140 g ai/ha, 13 DAT): 61.67%
% control (Paspalum sp.; 2 appl, 140 g ai/ha, 21 DAT): 61.67%
% control (Paspalum sp.; 2 appl, 140 g ai/ha, 27 DAT): 56.67%
% control (Paspalum sp.; 2 appl, 140 g ai/ha, 35 DAT): 83.33%
% control (Paspalum sp.; 2 appl, 140 g ai/ha, 42 DAT): 81.67%
% control (Paspalum sp.; 2 appl, 140 g ai/ha, 61 DAT): 70.00%
% control (Paspalum sp.; 2 appl, 280 g ai/ha, 5 DAT): 20.00%
% control (Paspalum sp.; 2 appl, 280 g ai/ha, 13 DAT): 68.33%
% control (Paspalum sp.; 2 appl, 280 g ai/ha, 21 DAT): 68.33%
% control (Paspalum sp.; 2 appl, 280 g ai/ha, 27 DAT): 58.33%
% control (Paspalum sp.; 2 appl, 280 g ai/ha, 35 DAT): 91.67%
% control (Paspalum sp.; 2 appl, 280 g ai/ha, 42 DAT): 95.00%
% control (Paspalum sp.; 2 appl, 280 g ai/ha, 61 DAT): 81.67%
phytotoxicity to turfgrass, in words (turfgrass; applied at low rates): levels of phytotoxicity to turfgrass are acceptable
phytotoxicity by turfgrass type, in words (turfgrass; cool season versus warm season species): lower on cool season turfgrass species
% phytotoxicity ([2]; DG Lite granule, no safener, 520 g ai/ha): 18.8%
% phytotoxicity ([2]; DG Lite granule, safener Cyprosulfamide (0.07%), 520 g ai/ha): 21.3%
% phytotoxicity ([2]; DG Lite granule, safener Formula 2.3 (0.07%), 520 g ai/ha): 20.0%
% phytotoxicity ([2]; DG Lite granule, safener Isoxadifen (0.07%), 520 g ai/ha): 21.3%
% phytotoxicity ([2]; Spray, no safener, 260 g ai/ha): 31.3%
% phytotoxicity ([3]; 1 appl, 140 g ai/ha, 8 DAT): 36.25%
% phytotoxicity ([3]; 1 appl, 140 g ai/ha, 14 DAT): 28.75%
% phytotoxicity ([3]; 1 appl, 140 g ai/ha, 29 DAT): 1.25%
% phytotoxicity ([3]; 1 appl, 140 g ai/ha, 35 DAT): 0.00%
% phytotoxicity ([3]; 1 appl, 140 g ai/ha, 43 DAT): 0.00%
% phytotoxicity ([3]; 1 appl, 140 g ai/ha, 51 DAT): 0.00%
% phytotoxicity ([3]; 1 appl, 140 g ai/ha, 60 DAT): 0.00%
% phytotoxicity ([3]; 1 appl, 280 g ai/ha, 8 DAT): 35.00%
% phytotoxicity ([3]; 1 appl, 280 g ai/ha, 14 DAT): 52.50%
% phytotoxicity ([3]; 1 appl, 280 g ai/ha, 29 DAT): 1.25%
% phytotoxicity ([3]; 1 appl, 280 g ai/ha, 35 DAT): 0.00%
% phytotoxicity ([3]; 1 appl, 280 g ai/ha, 43 DAT): 0.00%
% phytotoxicity ([3]; 1 appl, 280 g ai/ha, 51 DAT): 0.00%
% phytotoxicity ([3]; 1 appl, 280 g ai/ha, 60 DAT): 0.00%
% phytotoxicity ([3]; 2 appl, 140 g ai/ha, 8 DAT): 26.25%
% phytotoxicity ([3]; 2 appl, 140 g ai/ha, 14 DAT): 31.25%
% phytotoxicity ([3]; 2 appl, 140 g ai/ha, 29 DAT): 0.00%
% phytotoxicity ([3]; 2 appl, 140 g ai/ha, 35 DAT): 30.00%
% phytotoxicity ([3]; 2 appl, 140 g ai/ha, 43 DAT): 18.75%
% phytotoxicity ([3]; 2 appl, 140 g ai/ha, 51 DAT): 7.50%
% phytotoxicity ([3]; 2 appl, 140 g ai/ha, 60 DAT): 0.00%
% phytotoxicity ([3]; 2 appl, 280 g ai/ha, 8 DAT): 36.25%
% phytotoxicity ([3]; 2 appl, 280 g ai/ha, 14 DAT): 52.50%
% phytotoxicity ([3]; 2 appl, 280 g ai/ha, 29 DAT): 3.75%
% phytotoxicity ([3]; 2 appl, 280 g ai/ha, 35 DAT): 28.75%
% phytotoxicity ([3]; 2 appl, 280 g ai/ha, 43 DAT): 22.50%
% phytotoxicity ([3]; 2 appl, 280 g ai/ha, 51 DAT): 8.75%
% phytotoxicity ([3]; 2 appl, 280 g ai/ha, 60 DAT): 0.00%
% phytotoxicity (Bluegrass/fescue mix; 10 g ai/ha, 7 DAT): 0.00%
% phytotoxicity (Bluegrass/fescue mix; 10 g ai/ha, 14 DAT): 0.00%
% phytotoxicity (Bluegrass/fescue mix; 10 g ai/ha, 22 DAT): 0.00%
% phytotoxicity (Bluegrass/fescue mix; 10 g ai/ha, 29 DAT): 0.00%
% phytotoxicity (Bluegrass/fescue mix; 10 g ai/ha, 46 DAT): 0.00%
% phytotoxicity (Bluegrass/fescue mix; 20 g ai/ha, 7 DAT): 0.00%
% phytotoxicity (Bluegrass/fescue mix; 20 g ai/ha, 14 DAT): 0.00%
% phytotoxicity (Bluegrass/fescue mix; 20 g ai/ha, 22 DAT): 0.00%
% phytotoxicity (Bluegrass/fescue mix; 20 g ai/ha, 29 DAT): 0.00%
% phytotoxicity (Bluegrass/fescue mix; 20 g ai/ha, 46 DAT): 0.00%
% phytotoxicity (Bluegrass/fescue mix; 40 g ai/ha, 7 DAT): 0.00%
% phytotoxicity (Bluegrass/fescue mix; 40 g ai/ha, 14 DAT): 0.00%
% phytotoxicity (Bluegrass/fescue mix; 40 g ai/ha, 22 DAT): 0.00%
% phytotoxicity (Bluegrass/fescue mix; 40 g ai/ha, 29 DAT): 0.00%
% phytotoxicity (Bluegrass/fescue mix; 40 g ai/ha, 46 DAT): 0.00%
% phytotoxicity (Bluegrass/fescue mix; 80 g ai/ha, 7 DAT): 0.00%
% phytotoxicity (Bluegrass/fescue mix; 80 g ai/ha, 14 DAT): 0.00%
% phytotoxicity (Bluegrass/fescue mix; 80 g ai/ha, 22 DAT): 0.00%
% phytotoxicity (Bluegrass/fescue mix; 80 g ai/ha, 29 DAT): 0.00%
% phytotoxicity (Bluegrass/fescue mix; 80 g ai/ha, 46 DAT): 0.00%
% phytotoxicity (Bluegrass/fescue mix; 160 g ai/ha, 7 DAT): 0.00%
% phytotoxicity (Bluegrass/fescue mix; 160 g ai/ha, 14 DAT): 2.50%
% phytotoxicity (Bluegrass/fescue mix; 160 g ai/ha, 22 DAT): 0.00%
% phytotoxicity (Bluegrass/fescue mix; 160 g ai/ha, 29 DAT): 0.00%
% phytotoxicity (Bluegrass/fescue mix; 160 g ai/ha, 46 DAT): 0.00%
% phytotoxicity ([4]; 10 g ai/ha, 5 DAT): 5.00%
% phytotoxicity ([4]; 10 g ai/ha, 12 DAT): 5.00%
% phytotoxicity ([4]; 10 g ai/ha, 18 DAT): 0.00%
% phytotoxicity ([4]; 10 g ai/ha, 28 DAT): 0.00%
% phytotoxicity ([4]; 20 g ai/ha, 5 DAT): 6.67%
% phytotoxicity ([4]; 20 g ai/ha, 12 DAT): 6.67%
% phytotoxicity ([4]; 20 g ai/ha, 18 DAT): 2.00%
% phytotoxicity ([4]; 20 g ai/ha, 28 DAT): 0.00%
% phytotoxicity ([4]; 40 g ai/ha, 5 DAT): 11.67%
% phytotoxicity ([4]; 40 g ai/ha, 12 DAT): 18.33%
% phytotoxicity ([4]; 40 g ai/ha, 18 DAT): 4.00%
% phytotoxicity ([4]; 40 g ai/ha, 28 DAT): 0.00%
% phytotoxicity ([4]; 80 g ai/ha, 5 DAT): 16.67%
% phytotoxicity ([4]; 80 g ai/ha, 12 DAT): 30.00%
% phytotoxicity ([4]; 80 g ai/ha, 18 DAT): 5.00%
% phytotoxicity ([4]; 80 g ai/ha, 28 DAT): 0.67%
% phytotoxicity ([4]; 160 g ai/ha, 5 DAT): 23.33%
% phytotoxicity ([4]; 160 g ai/ha, 12 DAT): 46.67%
% phytotoxicity ([4]; 160 g ai/ha, 18 DAT): 8.33%
% phytotoxicity ([4]; 160 g ai/ha, 28 DAT): 3.00%
